Data on three substances can be found in paper PMC4642645, “Oxacillin sensitization of methicillin-resistant Staphylococcus aureus and methicillin-resistant Staphylococcus pseudintermedius by antisense peptide nucleic acids in vitro” (BMC Microbiology, 2015).

In assay [1] the test system is NCTC 13142. Briefly: Oxacillin sensitization viable count assay (CFU on oxacillin plates). Type of assay: cell-based, Staphylococcus aureus (MRSA). Particulars: 6 h, plated on 16 μg/ml oxacillin, n = 3; for CFU reduction of NCTC 13142: 7.5 μM PNA, ratio to untreated control, mean. As for the experimental part: (§1) The viable count assay is more sensitive than the broth assay and was used to assess the effects of PNAs that performed well in the initial screen described above. In the viable count assay, 5 × 10^5 CFU/ml per well of culture was treated either with 2.5, 5 and 7.5 μM of PNA for NCTC 13142, or 1, 2.5 and 5 μM of PNA for HH-1 in MHB at 35 °C for 6 h. […] Agar plates were incubated at 35 °C for 24 h, and dilutions resulting in 30–300 colonies per plate were used to determine the viable count. Experimental repeats were carried out on separate days, and reductions in CFU of treated cultures were normalized to CFU of the untreated control culture on the day. Statistical analysis of CFU reductions was carried out with the paired Student’s t-Test in Microsoft Excel.

In assay [2] the test system is HH-1. The description is as above. Type of assay: cell-based, Staphylococcus pseudintermedius (MRSP). As for the experimental part:
as §1

Assay [3] has as its system ftsZ mRNA. Briefly: ftsZ mRNA level by RT-qPCR. The conditions noted are these: NCTC 13142, 7.5 μM PNA, no oxacillin, compared to untreated or scrZ-treated cells, n = 3. Type of assay: cell-based, Staphylococcus aureus (MRSA) NCTC 13142. As for the experimental part: (§2) Growth of cultures in a 96 well plate was monitored by reading the optical density at 550 nm every 5 min, after shaking for 5 s in a microplate reader (Spectramax 340PC, […]). Cultures were harvested when the untreated control culture increased in OD550 ≈ 0.1. Cultures with the same PNA treatment but in different wells across the 96 well plate were pooled for total RNA extraction and DNase I treatment (Ribopure™ Bacteria kit, Life Technologies). RNA was checked for gDNA contamination by qPCR using gyrA primers (Additional file 1: Table S1) and SsoFast™ EvaGreen® Supermix (Bio-Rad) before cDNA synthesis using 50 ng RNA and iScript™ Reverse Transcription Supermix (Bio-Rad). Samples of cDNA were diluted 10-fold and 4 μl used in each qPCR reaction. […]
(§3) Primer pairs for qPCR were designed by Primer3 with a Tm of 60 °C and product sizes of 100–200 bp (Additional file 1: Table S1). […] Primer efficiencies were determined using 10-fold serial dilutions of cDNA (10 pg-1 μg). […]
(§4) Total RNA and cDNA were prepared as described above. Raw Cq values were analysed in qbase + (Biogazelle, Belgium) with user-defined primer efficiencies (Additional file 1: Table S1) and expression stabilities (M value) of each candidate reference gene fabD, gyrA, proC, pta, pyk, rho, sodA, and tpiA were calculated as the average pairwise variation for each gene with all other tested genes. […]
(In qPCR the cycle at which signal appears reflects the starting amount.)

Assay [4] deals with ftsZ mRNA. Briefly: ftsZ mRNA level by RT-qPCR. Type of assay: cell-based, Staphylococcus pseudintermedius (MRSP) HH-1. Particulars: HH-1, 2.5 μM PNA, no oxacillin, compared to untreated or scrZ-treated cells, n = 3. As for the experimental part:
as §2, §3, §4

Assay [5] concerns NCTC 13142. In words: Growth inhibition assay (OD550 growth curves). Type of assay: cell-based, Staphylococcus aureus (MRSA). The conditions noted are these: NCTC 13142, MHB with 6 μg/ml oxacillin, PNA 0–7.5 μM, 35 °C, 6 h, OD550, n = 3. As for the experimental part: (§5) Anti-ftsZ PNAs were tested for effects on growth. Overnight MHB cultures were adjusted to 5 × 10^5 CFU/ml per well of a 96 well plate in MHB supplemented with 6 μg/ml oxacillin as described above. Anti-ftsZ PNA was added to final concentrations of 0, 1, 2.5, 5, 7.5 μM and incubated in a microplate reader (Spectramax 340PC, Molecular Devices) at 35 °C for 6 h. The optical density of the cultures was monitored at 550 nm with readings every 5 min after shaking for 5 s.

Assay [6] concerns HH-1. Briefly: Growth inhibition assay (OD550 growth curves). Type of assay: cell-based, Staphylococcus pseudintermedius (MRSP). Particulars: HH-1, MHB with 6 μg/ml oxacillin, PNA 0–7.5 μM, 35 °C, 6 h, OD550, n = 3. As for the experimental part:
as §5

Assay [7] deals with NCTC 13142. In words: Light microscopy of Gram stained cells (cell morphology). Type of assay: cell-based, Staphylococcus aureus (MRSA). Particulars: NCTC 13142, 7.5 μM PNA, 6 h at 35 °C, 1000 × magnification. As for the experimental part:
(§6) Bacterial cultures were treated with anti-ftsZ PNA Z46 in broth as described in the viable count assay. After 6 h at 35 °C, cultures were pelleted, washed once in PBS, and re-suspended in 1/10 of original volume of the culture in PBS. Ten microliter aliquots were heat-fixed, Gram stained, and viewed under a light microscope (Olympus BX60) at 1000 × magnification. Images were captured using the Image-Pro Plus 5.0 (MediaCybernetics), and counting of purple and pink cells were carried out using ImageJ 1.44o (National Institute of Health, USA).

Assay [8] deals with HH-1. The assay is described as above. Type of assay: cell-based, Staphylococcus pseudintermedius (MRSP). Particulars: HH-1, 2.5 μM PNA, 6 h at 35 °C, 1000 × magnification. As for the experimental part:
as §6

The next assay has as its system MRSP isolates. Particulars: cited from earlier work. The source says:
In the MRSP strain HH-1, PNAs were effective at much lower concentrations compared to NCTC 13142. This is presumably due to differences in cell wall structures, as passage across the cell wall is considered to be the main limiting factor for PNA efficacy. Another indication of cell wall differences is that scrambled PNAs affected cell viability of HH-1 without affecting transcript levels of mecA or ftsZ (i.e. non-specific toxic effect).

Consider “KFFKFFKFFK-eg1-TAACATTTAA-NH2 [Z46, anti-ftsZ PNA (−4 to +6) conjugated to the (KFF)3K peptide]”, for which the “CFU reduction of NCTC 13142” value in the assay on NCTC 13142 [1] amounted to 87%. Further, the “Sensitization to oxacillin (CFU reduction), result in words” value is given as “significantly sensitized” in the assay on NCTC 13142 [1] (NCTC 13142, PNA 2.5, 5, 7.5 μM (Z46: 7.5 μM)); “significantly sensitized” with HH-1 [2] (HH-1, A73 and scrA 1, 2.5, 5 μM, Z46 0.5, 1, 2.5 μM, 6 h, plated on 16 μg/ml oxacillin, n = 3). Also, in the assay with HH-1 [2] (2.5 μM PNA, 6 h at 35 °C, plated on MH agar with 16 μg/ml oxacillin, relative to untreated control), the “MRSP cells killed by oxacillin” value turned out to be 95%. Also, the “ftsZ mRNA levels, result in words” value in the assay on ftsZ mRNA [3] and in the assay with ftsZ mRNA [4] was “reduced” in each case. For the same substance, the “Concentration that inhibited growth” value in the assay on NCTC 13142 [5] is 7.5 µM; in the assay on HH-1 [6] it was 2.5 µM. The “Cell morphology after Gram stain” value in the assay on NCTC 13142 [7] and with HH-1 [8] was “swollen” each time.

For the substance “KFFKFFKFFK [(KFF)3K peptide, cell-penetrating peptide (CPP) used as PNA carrier]”, the “MIC against MRSP isolates” value with MRSP isolates was 2 to 8 µM.

With “KFFKFFKFFK-eg1-AATTACTATA-NH2 [scrZ, scrambled control PNA for anti-ftsZ PNAs conjugated to the (KFF)3K peptide]”, in the assay on NCTC 13142 [1], the “CFU reduction of NCTC 13142” value is listed as 44%. Besides, the “Concentration that inhibited growth” value with NCTC 13142 [5] is “not growth inhibitory”; in the assay with HH-1 [6], 2.5 µM. Further, the “Cell morphology after Gram stain” value in the assay with NCTC 13142 [7] and with HH-1 [8] was “appeared normal” in each case.
